US5780589A, “Ultraselective opioidmimetic peptides and pharmacological and therapeutic uses thereof” (The United States of America as represented by the …, priority 1994, dated 1998)
“Also recorded” adds a separate entry of the source. Like-named read-outs stand apart in the source and are kept apart here. Non-standard residues stand in square brackets, D forms with d. Residues, ends and D or L forms follow the SMILES beside them. Dmt = Cc1cc(O)cc(C)c1C[C@H](N)C(=O)O; Tic = O=C(O)[C@@H]1Cc2ccccc2CN1; dTic = O=C(O)[C@H]1Cc2ccccc2CN1

How the values were obtained:
μ receptors = μ receptors (Cavia porcellus, UniProt P97266); experiment: Guinea-pig ileum (GPI) bioassay, electrically stimulated contractions
μ receptors, sequence (P97266 whole entry, looked up): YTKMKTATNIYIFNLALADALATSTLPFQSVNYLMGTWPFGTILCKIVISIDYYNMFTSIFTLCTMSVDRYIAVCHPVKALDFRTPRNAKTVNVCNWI
Protocol: (§1) The in vitro pharmacological assays were undertaken using published methods (32) based on the organ bath technique of Kosterlitz and Watt (50). For μ receptors, a 2-3 cm segment of guinea-pig ileum (GPI) mounted in a 20 mL organ bath and for δ receptors, a single mouse vas deferens (MVD) was obtained from a mature animal.

δ receptors = δ receptors (Mus musculus, UniProt P32300); conditions: for antagonist properties in MVD bioassay: in vitro mouse vas deferens
δ receptors, sequence (P32300 whole entry): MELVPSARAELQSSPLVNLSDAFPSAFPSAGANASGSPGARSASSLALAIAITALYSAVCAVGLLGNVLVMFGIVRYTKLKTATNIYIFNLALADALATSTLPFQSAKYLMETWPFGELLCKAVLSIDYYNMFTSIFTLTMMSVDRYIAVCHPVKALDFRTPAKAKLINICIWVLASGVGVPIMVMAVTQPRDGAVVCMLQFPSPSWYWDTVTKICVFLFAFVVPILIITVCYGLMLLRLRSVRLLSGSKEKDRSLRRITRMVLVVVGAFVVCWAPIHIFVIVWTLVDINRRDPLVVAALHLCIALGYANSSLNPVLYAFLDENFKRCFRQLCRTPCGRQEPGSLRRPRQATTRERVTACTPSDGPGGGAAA
Protocol: as §1

μ receptor = target: T1, μ receptor (Rattus norvegicus, UniProt P33535); experiment: μ receptor binding, rat membrane synaptosomes, [3H]DAGO; conditions: rat synaptosomes (P2), mean ± SEM
T1 construct: Rat membrane synaptosome preparations (P2 fraction) were prepared as detailed previously; from tissue; host or cells: rat synaptosomal membranes (P2 fraction)
T1 sequence (P33535 whole entry): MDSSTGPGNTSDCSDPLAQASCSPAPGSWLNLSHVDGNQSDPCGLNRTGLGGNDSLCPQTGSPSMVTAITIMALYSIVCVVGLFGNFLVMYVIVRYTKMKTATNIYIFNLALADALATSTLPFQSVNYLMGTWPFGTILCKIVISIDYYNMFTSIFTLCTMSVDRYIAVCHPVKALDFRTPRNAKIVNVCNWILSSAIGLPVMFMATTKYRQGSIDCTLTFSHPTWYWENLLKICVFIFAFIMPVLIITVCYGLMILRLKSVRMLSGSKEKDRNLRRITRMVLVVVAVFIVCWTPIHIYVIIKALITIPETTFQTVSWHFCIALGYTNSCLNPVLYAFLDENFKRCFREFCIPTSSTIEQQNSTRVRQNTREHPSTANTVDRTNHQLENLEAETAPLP
Protocol: (§2) Rat membrane synaptosome preparations (P2 fraction) were prepared as detailed previously, which included a preincubation step to reduce the presence of endogenous ligands and binding of G proteins (33,40). […] Samples were rapidly filtered through wetted glass fiber filters and thoroughly washed with 6 mL (3×2 mL) ice-cold 50 mM Tris-HCl, pH 7.5, containing 0.01-0.1% chicken egg albumin or bovine serum albumin. […] The filters were dried at 70° C. and the radioactivity determined after an overnight incubation period in CytoScint to maximize the radioactivity detected and reduce variability between samples. The IC50 values were converted to affinity constants (Ki) according to Cheng and Prusoff (48).

mice = experiment: Tail flick test (TFT), analgesia and morphine antagonism in mice; format: in vivo, CD-1 mice
Protocol: Animal procedures were conducted under protocols approved by the Animal Use and Care Committee, NIEHS, an AALAC accredited facility. Tail flick test (TFT) used a radiant heat source on the tail of Fisher 344 rats or CD-1 mice (52). The response was standardized by the subcutaneous (sc) injection of 5 mg morphine sulfate/kilogram (Kg) body weight or 0.1-0.25 mg morphine/Kg body weight by iv injection; peptides were injected in 100 μL volume in sterile saline. […] Intrathecal injection of peptides in mice used the method of Hylden and Wilcox (53). A base-line and cut-off 10 sec were determined in the TFT with naive and morphine-dosed animals, respectively,to prevent damage to the tail. 1 μg to 10 mg per kilogram of animal was used for iv, icv or sc; higher doses in the mg range were used for sc injection.

δ receptor = target: T2, δ receptor (Rattus norvegicus, UniProt P33533); experiment: Multi-site (one- vs two-site) δ receptor binding analysis; conditions: for δ receptor binding model fitted: one-site vs two-site; for Percent low-affinity sites: two-site δ receptor fit; for Ki: Prism fit
T2 construct: Rat membrane synaptosome preparations (P2 fraction) were prepared as detailed previously; from tissue; host or cells: rat synaptosomal membranes (P2 fraction)
T2 sequence (P33533 whole entry): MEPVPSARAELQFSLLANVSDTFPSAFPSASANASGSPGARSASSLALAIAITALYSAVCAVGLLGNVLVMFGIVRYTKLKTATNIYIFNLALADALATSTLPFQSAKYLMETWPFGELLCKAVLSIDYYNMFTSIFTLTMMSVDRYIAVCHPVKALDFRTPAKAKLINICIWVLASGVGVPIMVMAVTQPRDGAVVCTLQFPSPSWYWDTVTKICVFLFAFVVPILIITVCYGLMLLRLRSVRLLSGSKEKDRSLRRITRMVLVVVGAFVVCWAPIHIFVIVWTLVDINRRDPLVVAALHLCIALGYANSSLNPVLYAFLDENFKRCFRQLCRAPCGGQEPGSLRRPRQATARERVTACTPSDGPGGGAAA
Protocol: as §2
Multi-site binding analyses, based on stringent statistical methods, were performed as described in Bryant et al. (41) and Attila et al. (49). Receptor assays were conducted in triplicate with 25-35 graded concentrations of peptide; the resulting curves were both individually assessed and combined from several distinct assays, and analyzed using Prism™ (v. 1.02, GraphPad, San Diego, Calif.).

δ opioid receptor = target: T3, δ opioid receptor (Rattus norvegicus, UniProt P33533); experiment: δ receptor binding, rat membrane synaptosomes, [3H]DPDPE; conditions: for Ki: [3H]DPDPE, rat synaptosomes (P2), mean ± SEM; for μ/δ (receptor selectivity): ratio Ki μ / Ki δ
T3 construct: Rat membrane synaptosome preparations (P2 fraction) were prepared as detailed previously; from tissue; host or cells: rat synaptosomal membranes (P2 fraction)
T3 sequence (P33533 whole entry): as above
Protocol: as §2

[1] = concentration equivalent of pA2, against deltorphin C
[2] = high affinity δ site, read-out: Ki (nM) High
[3] = low affinity δ site, read-out: Ki (nM) Low
[4] = guinea-pig ileum, read-out: GPI IC50

Row | Structure (SMILES) | MVD (δ receptors; [1]) [nM] | Ki (μ receptor) [nM] | δ receptor binding model fitted (δ receptor) | Percent low-affinity sites (δ receptor) [%] | Kb (δ receptors) [nM] | antagonist properties in MVD bioassay (δ receptors) | Ki (δ opioid receptor) [nM] | Ki (δ receptor; [2]) [nM] | μ/δ (receptor selectivity) (δ opioid receptor) | Ki (δ receptor; [3]) [nM] | also measured
1 | Oc1ccc2c3c1O[C@H]1c4[nH]c5ccccc5c4C[C@@]4(O)[C@@H](C2)N(CC2CC2)CC[C@]314 [Naltrindole, naltrindole, reference compound] | 0.7 |  |  |  |  |  |  |  |  |  | GPI nM (with pA2) (μ receptors; guinea-pig ileum): 53 nM; GPI pA2 (μ receptors; guinea-pig ileum): 7.3; MVD pA2 (δ receptors; antagonism against deltorphin C as the agonist): 9.2
2 | Cc1cc(O)cc(C)c1C[C@H](N)C(=O)N1Cc2ccccc2C[C@H]1C(=O)O [Peptide 1, Dmt-Tic-OH] (H-[Dmt]-[Tic]-OH; N-terminus assumed) | 5.7 | 3320 | one-site binding model | 30.7 ± 91.5 | 6.31 | antagonist properties |  |  |  |  | analgesia in tail flick test (mice; iv, 100 ug/mouse where stated): no demonstratable analgesia; also recorded: no demonstrable analgesia; block of the effect of morphine in tail flick test (mice; morphine injected iv (0.25 mg/kg), peptide 100 ug/mouse iv): completely blocked
3 | Cc1cc(O)cc(C)c1C[C@H](N)C(=O)N1Cc2ccccc2C[C@H]1C(N)=O [Peptide 2, Dmt-Tic-NH2] (H-[Dmt]-[Tic]-NH2; N-terminus assumed) | 4.2 |  | one-site binding model | 6.2 ± 40.1 | 63.1 | antagonist properties | 1.22 ± 0.09 | 1.06 |  |  | IC50 (μ receptors): > 10 µM
4 | Cc1cc(O)cc(C)c1C[C@H](N)C(=O)N1Cc2ccccc2C[C@@H]1C(=O)O [Peptide 3, Dmt-D-Tic-OH] (H-[Dmt]-[dTic]-OH; N-terminus assumed) |  | 224 ± 25.6 |  |  |  |  |  |  |  |  | 
5 | Cc1cc(O)cc(C)c1C[C@H](N)C(=O)N1Cc2ccccc2C[C@@H]1C(N)=O [Peptide 4, Dmt-D-Tic-NH2] (H-[Dmt]-[dTic]-NH2; N-terminus assumed) |  |  |  |  |  |  | 56.9 ± 2.9 |  |  |  | 
6 | Cc1cc(O)cc(C)c1C[C@H](N)C(=O)N1Cc2ccccc2C[C@H]1CO [Peptide 5, Dmt-Tic--CH2 OH] | 6.6 | 151 ± 16.3 | two-site model | 20.9 ± 5.3 | 100 | antagonist properties | 0.44 ± 0.14 | 0.13 | 344 | 5.2 | IC50 (μ receptors): > 10 µM
7 | Cc1cc(O)cc(C)c1C[C@@H]1NC(=O)[C@@H]2Cc3ccccc3CN2C1=O [Peptide 6, c(Dmt-Tic)] |  | 635 ± 69.3 | two-site model | 86.8 ± 3.9 | 3720 | antagonist properties |  | 0.09 | 66 | 9.4 | IC50 (μ receptors): 20 ± 2 µM; fold higher δ affinity relative to Tyr-Tic cognate (δ opioid receptor; vs Tyr-Tic-OH (peptide 12) or c(Tyr-Tic) (peptide 17)): 4,000 fold; MVD nM (δ receptors; [1]): 3,800 nM
8 | Cc1cc(O)cc(C)c1C[C@@H]1NC(=O)[C@H]2Cc3ccccc3CN2C1=O [Peptide 7, c(Dmt-D-Tic)] |  | 728 ± 72.9 |  |  |  |  | 499 ± 117 |  | 1.5 |  | 
9 | Cc1cc(O)cc(C)c1C[C@H](N)C(=O)N1Cc2ccccc2C[C@H]1C(=O)N[C@@H](C)C(=O)O [Peptide 8, Dmt-Tic-Ala-OH] (H-[Dmt]-[Tic]-Ala-OH) |  | 5810 |  |  | 3.98 |  | 0.285 ± 0.03 | 0.12 | 20,396 | 4.8 | IC50 (μ receptors; [4]): > 10 µM
10 | Cc1cc(O)cc(C)c1C[C@H](N)C(=O)N1Cc2ccccc2C[C@H]1C(=O)N[C@@H](C)C(N)=O [Peptide 9, Dmt-Tic-Ala-NH2] (H-[Dmt]-[Tic]-Ala-NH2) |  |  |  |  |  |  |  | 0.18 | 195 | 10.7 | IC50 (μ receptors; [4]): 4.74 ± 0.9 µM
11 | Cc1cc(O)cc(C)c1C[C@H](N)C(=O)N1Cc2ccccc2C[C@@H]1C(=O)N[C@@H](C)C(=O)O [Peptide 10, Dmt-D-Tic-Ala-OH] (H-[Dmt]-[dTic]-Ala-OH) |  | 82.8 ± 2 |  |  |  |  | 88.7 ± 13.8 |  | 0.93 |  | 
